Columns and labels:
Type in all cases: cell-based
[1] = system: approximately 60 human tumor cell lines; experiment: NCI DTP human tumor cell line screen, whole panel statistics; conditions: for inhibitory activities against cancer cells: DTP human tumor cell line screen, non-small cell lung, colon, breast, ovarian, leukemia, renal, melanoma, prostate, CNS cancer; for mean growth percent: mean over all cell lines tested; for mean growth percent / delta value (growth percent) / range (growth percent): 10 μM, 48 h; for delta value (growth percent) / range (growth percent): over all cell lines tested
Protocol: Representative compounds of the invention, prepared as described in EXAMPLES 1-6, were submitted to the Developmental Therapeutics Program of the United States National Cancer Institute (NCl) to screen for anti-cancer activity. The anti-cancer activities of the six compounds were tested against approximately 60 human tumor cell lines representing leukemia, melanoma, and cancers of the lung, colon, breast, ovary, kidney, prostate, and brain. The following screening methodology was provided by the NCl. […] For experimental screens, cells were inoculated into 96 well microtiter plates in 100 μL at plating densities ranging from 5,000 to 40,000 cells/well depending on the doubling time of individual cell lines. After cell inoculation, the microtiter plates were incubated at 37° C., 5% carbon dioxide, 95% air and 100% relative humidity for 24 hours prior to addition of the compounds. After 24 hours of incubation, two plates of each cell line were fixed in situ with trichloroacetic acid (TCA) to represent a measurement of the cell population for each cell line at the time of compound addition (Tz). The compounds were solubilized in dimethyl sulfoxide at 400-fold the desired final maximum test concentration and stored frozen prior to use. At the time of drug addition, frozen aliquots of the compounds thawed and diluted with complete medium containing 50 μg/ml gentamicin. Aliquots of 100 μl of these different compound dilutions were added to the appropriate microtiter wells already containing 100 μl of medium, resulting in the required final compound concentration of 10 μM. Following compound addition, the plates were incubated for an additional 48 h at 37° C., 5% carbon dioxide, 95% air, and 100% relative humidity. For adherent cells, the assay was terminated by the addition of cold TCA. Cells were fixed in situ by the gentle addition of 50 μl of cold 50% (w/v) TCA (final concentration, 10% TCA) and incubated for 60 minutes at 4° C. The supernatant was discarded, and the plates were washed five times with tap water and air dried. Sulforhodamine B (SRB) solution (100 μl) at 0.4% (w/v) in 1% acetic acid was added to each well, and plates were incubated for 10 minutes at room temperature. After staining, unbound dye was removed by washing five times with 1% acetic acid and the plates were air dried. Bound stain was subsequently solubilized with 10 mM trizma base, and the absorbance was read on an automated plate reader at a wavelength of 515 nm. For suspension cells, the methodology was the same except that the assay was terminated by fixing settled cells at the bottom of the wells by gently adding 50 μl of 80% TCA (final concentration, 16% TCA). Using the three absorbance measurements [time zero, (Tz), control growth, (C), and test growth in the presence of compound (Ti)], the percentage growth was calculated at each of the compound concentrations levels. Percentage growth inhibition was calculated with the following algorithms: [(Ti−Tz)/(C−Tz)]×100 for concentrations for which Ti>/=Tz [(Ti−Tz)/Tz]×100 for concentrations for which Ti<Tz The results of the NCl in vitro anticancer screening with six compounds against various human tumor cell lines are presented below in Tables 2-7. […] The growth percent mean, delta, and range for each compound are given below.

IGROV1 = experiment: NCI DTP human tumor cell line screen (SRB); conditions: Ovarian Cancer, 10 μM, 48 h
Procedure, shortened: (§1)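 After seeding at 5,000–40,000 cells/well, plates sat 24 h before a Tz plate was fixed and compound (10 μM final, from DMSO stock) was added. Incubation continued 48 h; cells were TCA-fixed, SRB-stained and read at 515 nm.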

KM12 = experiment: NCI DTP human tumor cell line screen (SRB); conditions: Colon Cancer, 10 μM, 48 h
Procedure, shortened: as §1

786-0 = experiment: NCI DTP human tumor cell line screen (SRB); conditions: Renal Cancer, 10 μM, 48 h
Procedure, shortened: as §1

HCT-116 = experiment: NCI DTP human tumor cell line screen (SRB); conditions: Colon Cancer, 10 μM, 48 h
Procedure, shortened: as §1

SW-620 = experiment: NCI DTP human tumor cell line screen (SRB); conditions: Colon Cancer, 10 μM, 48 h
Procedure, shortened: as §1

NCI-H322M = experiment: NCI DTP human tumor cell line screen (SRB); conditions: Non-Small Cell Lung Cancer, 10 μM, 48 h
Procedure, shortened: as §1

CAKI-1 = experiment: NCI DTP human tumor cell line screen (SRB); conditions: Renal Cancer, 10 μM, 48 h
Procedure, shortened: as §1

SF-268 = experiment: NCI DTP human tumor cell line screen (SRB); conditions: CNS Cancer, 10 μM, 48 h
Procedure, shortened: as §1

SN12C = experiment: NCI DTP human tumor cell line screen (SRB); conditions: Renal Cancer, 10 μM, 48 h
Procedure, shortened: as §1

SNB-75 = experiment: NCI DTP human tumor cell line screen (SRB); conditions: CNS Cancer, 10 μM, 48 h
Procedure, shortened: as §1

NCI-H522 = experiment: NCI DTP human tumor cell line screen (SRB); conditions: Non-Small Cell Lung Cancer, 10 μM, 48 h
Procedure, shortened: as §1

DU-145 = experiment: NCI DTP human tumor cell line screen (SRB); conditions: Prostate Cancer, 10 μM, 48 h
Procedure, shortened: as §1

RXF 393 = experiment: NCI DTP human tumor cell line screen (SRB); conditions: Renal Cancer, 10 μM, 48 h
Procedure, shortened: as §1

SF-539 = experiment: NCI DTP human tumor cell line screen (SRB); conditions: CNS Cancer, 10 μM, 48 h
Procedure, shortened: as §1

NCI/ADR-RES = experiment: NCI DTP human tumor cell line screen (SRB); conditions: Breast Cancer, 10 μM, 48 h
Procedure, shortened: as §1

ACHN = experiment: NCI DTP human tumor cell line screen (SRB); conditions: Renal Cancer, 10 μM, 48 h
Procedure, shortened: as §1

SK-OV-3 = experiment: NCI DTP human tumor cell line screen (SRB); conditions: Ovarian Cancer, 10 μM, 48 h
Procedure, shortened: as §1

BT-549 = experiment: NCI DTP human tumor cell line screen (SRB); conditions: Breast Cancer, 10 μM, 48 h
Procedure, shortened: as §1

COLO 205 = experiment: NCI DTP human tumor cell line screen (SRB); conditions: Colon Cancer, 10 μM, 48 h
Procedure, shortened: as §1

A549/ATCC = experiment: NCI DTP human tumor cell line screen (SRB); conditions: Non-Small Cell Lung Cancer, 10 μM, 48 h
Procedure, shortened: as §1

MALME-3M = experiment: NCI DTP human tumor cell line screen (SRB); conditions: Melanoma, 10 μM, 48 h
Procedure, shortened: as §1

PC-3 = experiment: NCI DTP human tumor cell line screen (SRB); conditions: Prostate Cancer, 10 μM, 48 h
Procedure, shortened: as §1

MOLT-4 = experiment: NCI DTP human tumor cell line screen (SRB); conditions: Leukemia, 10 μM, 48 h
Procedure, shortened: as §1

HOP-92 = experiment: NCI DTP human tumor cell line screen (SRB); conditions: Non-Small Cell Lung Cancer, 10 μM, 48 h
Procedure, shortened: as §1

SR = experiment: NCI DTP human tumor cell line screen (SRB); conditions: Leukemia, 10 μM, 48 h
Procedure, shortened: as §1

MDA-MB-435 = experiment: NCI DTP human tumor cell line screen (SRB); conditions: Breast Cancer, 10 μM, 48 h
Procedure, shortened: as §1

M14 = experiment: NCI DTP human tumor cell line screen (SRB); conditions: Melanoma, 10 μM, 48 h
Procedure, shortened: as §1

Structure (SMILES) | inhibitory activities against cancer cells [1] | mean growth percent [1] [%] | delta value (growth percent) [1] | range (growth percent) [1] | Growth Percent (KM12) [%] | Growth Percent (786-0) [%] | Growth Percent (HCT-116) [%] | Growth Percent (SW-620) [%] | Growth Percent (NCI-H322M) [%] | Growth Percent (CAKI-1) [%] | Growth Percent (SF-268) [%] | Growth Percent (SN12C) [%] | Growth Percent (SNB-75) [%] | Growth Percent (NCI-H522) [%] | Growth Percent (SF-539) [%] | Growth Percent (NCI/ADR-RES) [%] | Growth Percent (ACHN) [%] | Growth Percent (SK-OV-3) [%] | Growth Percent (BT-549) [%] | Growth Percent (COLO 205) [%] | further results
Cc1ncc(CO)c(C=NNC(=O)c2ccc(COC3OC4OC5(C)CCC6C(C)CCC(C3C)C46OO5)cc2)c1O (stereo not shown) [ART-Phe-Pyridoxal, N′-(5-hydroxy-3-hydroxymethyl-2-methyl-4-pyridylidene)-4-(dihydroxyartemisinin-methyl)-phenyl carbohydrazide] | inhibitory activities against several types of cancer cells | 7.85 | 51.68 | 88.81 | 17.87 | −19.54 | 15.30 | 14.32 | 14.34 | −12.33 | 1.39 | 16.82 | 42.44 | 38.92 | −20.49 | 44.16 | 7.45 | −4.66 | −18.57 | −4.40 | mean growth percent ([1]; summary text): 7.85%; Growth Percent (IGROV1): 1.58%; Growth Percent (DU-145): −9.65%; Growth Percent (RXF 393): 35.07%; Growth Percent (A549/ATCC): 26.36%; Growth Percent (MALME-3M): −17.79%; Growth Percent (PC-3): 31.12%; Growth Percent (MOLT-4): −25.71%; Growth Percent (HOP-92): 20.97%; Growth Percent (SR): −29.75%; Growth Percent (MDA-MB-435): 18.74%
CC1CCC2C(C)C(OCc3ccc(C(=O)NN=Cc4ccccc4O)nc3)OC3OC4(C)CCC1C32OO4 (stereo not shown) [ART-Pyr-Sal, N′-(2-hydroxybenzylidene)-5-(dihydroxyartemisinin-methyl)-2-pyridine carbohydrazide] | inhibitory activities against several types of cancer cells | 12.83 | 42.97 | 85.3 | 29.31 | −17.58 | 18.34 | 26.43 | 31.89 | 18.48 | 12.40 | 22.81 | −6.97 | 10.19 | −29.69 | 6.72 | 10.64 | 11.40 | 15.65 | 30.63 | Growth Percent (MALME-3M): 8.61%; Growth Percent (PC-3): 21.62%; Growth Percent (M14): −9.91%; Growth Percent (MOLT-4): 10.13%; Growth Percent (HOP-92): 30.70%; Growth Percent (SR): −30.14%; Growth Percent (MDA-MB-435): 30.18%

From US7692030B2, “Conjugates of artemisinin-related endoperoxides and hydrazone derivatives for the treatment of cancer” (University of Washington, priority 2006, dated 2010)
